The results in this text go back to patent publication US20120220581A1, “IMIDAZO[1,2-b]PYRIDAZINE DERIVATIVES AND THEIR USE AS PDE10 INHIBITORS” (Janssen-Cilag, S.A., priority 2009, published 2012).

Structures are written as SMILES. Like-named read-outs stand apart in the source and are kept apart here.

Data set [1] addresses T1, Rat recombinant PDE10A (rPDE10A2) (Rattus norvegicus, UniProt Q9QYJ6).
T1 construct: inferred from the Ni metal chelate purification; made in house; host or cells: Sf9 insect cells (baculovirus)
T1 sequence (Q9QYJ6 1-794): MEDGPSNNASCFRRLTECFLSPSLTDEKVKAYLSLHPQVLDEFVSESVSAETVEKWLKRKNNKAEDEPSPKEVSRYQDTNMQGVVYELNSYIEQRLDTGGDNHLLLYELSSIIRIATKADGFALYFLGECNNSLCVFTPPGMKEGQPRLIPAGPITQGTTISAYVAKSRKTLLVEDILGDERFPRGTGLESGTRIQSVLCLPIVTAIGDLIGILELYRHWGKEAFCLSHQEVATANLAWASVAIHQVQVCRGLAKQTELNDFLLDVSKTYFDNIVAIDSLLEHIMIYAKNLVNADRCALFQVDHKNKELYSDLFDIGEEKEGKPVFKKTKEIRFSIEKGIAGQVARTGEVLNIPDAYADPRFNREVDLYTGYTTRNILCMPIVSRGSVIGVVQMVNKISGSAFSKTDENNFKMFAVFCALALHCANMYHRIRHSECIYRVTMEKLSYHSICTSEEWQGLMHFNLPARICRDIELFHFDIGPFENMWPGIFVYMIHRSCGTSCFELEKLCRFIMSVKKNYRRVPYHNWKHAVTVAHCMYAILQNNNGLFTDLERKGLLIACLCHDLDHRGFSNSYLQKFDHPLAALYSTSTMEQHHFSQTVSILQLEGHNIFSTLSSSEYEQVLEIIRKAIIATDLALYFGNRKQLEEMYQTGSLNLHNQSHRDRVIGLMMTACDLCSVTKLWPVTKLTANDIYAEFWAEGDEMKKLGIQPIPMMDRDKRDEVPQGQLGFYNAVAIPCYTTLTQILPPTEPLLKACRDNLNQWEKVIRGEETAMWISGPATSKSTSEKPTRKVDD
Briefly: In vitro assay PDE10A (SPA, 3H-cAMP). Type of data set: biochemical. In short, it runs like this: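 Rat PDE10A2 expressed in Sf9 cells and Ni-purified; incubated with 60 nM cAMP plus 0.008 μCi 3H-cAMP in 50 mM Tris pH 7.8, 8.3 mM MgCl2, 1.7 mM EGTA for 60 min at room temperature. Product quantified by scintillation proximity counting; final DMSO 1%.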

In data set [2] the test system is apomorphine-induced stereotypy in rats. Briefly: Apomorphine-induced stereotypy in rats (APO). The class given is in vivo. Conditions: Rattus norvegicus. As to the method: Apomorphine (1.0 mg/kg, i.v.)-induced stereotypy (compulsive sniffing, licking, chewing) was scored every 5 min over the first hour after injection of apomorphine, following a 1 hour interval pre-treatment with the test compound. The score system was: (3) pronounced, (2) moderate, (1) slight, and (0) absent.

Data set [3] concerns the target PDE4D3 (Homo sapiens, UniProt Q08499). Nature of the data set: In vitro PDE selectivity assay (SPA), PDE4D3. Type of data set: biochemical. The note with it: hPDE4D3; read-out: PDE 4D3 (expressed as pIC50) (converted). In short, it runs like this: (§1)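 Inhibition of each PDE isoform was measured by scintillation proximity assay with ³H-cyclic nucleotide substrate, using incubation buffer, substrate concentration, incubation time and stop solution adapted per isoform. Compounds were tested in dose-response against 1% DMSO controls and enzyme-free blanks. IC50 came from a least-squares fit of blank-subtracted % of control versus concentration.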

Data set [4] has as its target PDE5A3 (Homo sapiens, UniProt O76074). Nature of the data set: In vitro PDE selectivity assay (SPA), PDE5A3. The class given is biochemical. The note with it: hPDE5A3; read-out: PDE 5A3 (expressed as pIC50) (converted). In short, it runs like this:
as §1

Data set [5] deals with other members of the PDE family (Homo sapiens, UniProt Q14432). Nature of the data set: In vitro PDE selectivity assay (SPA), other members of the PDE family (protocols in Table A). Type of data set: biochemical. Conditions: hPDE3A; read-out: PDE 3A (expressed as pIC50) (converted). In short, it runs like this: as §1
Data set [6] concerns the target other members of the PDE family (Homo sapiens, UniProt O00408). The description is as above. The class given is biochemical. Conditions: hPDE2A; read-out: PDE 2A (expressed as pIC50) (converted). In short, it runs like this: as §1
In data set [7] the target is other members of the PDE family (Homo sapiens, UniProt O76083). Described as above. Type of data set: biochemical. Conditions: hPDE9A; read-out: PDE 9A (expressed as pIC50) (converted). In a few lines: as §1
Data set [8] deals with other members of the PDE family (Homo sapiens, UniProt Q13946). The data set is described as above. The class given is biochemical. Conditions: hPDE7A1; read-out: PDE 7A (expressed as pIC50) (converted). In short, it runs like this:
as §1

Data set [9] has as its target other members of the PDE family (Homo sapiens, UniProt Q9HCR9). The description is as above. The class given is biochemical. The note with it: hPDE11A4; read-out: PDE 11A4 (expressed as pIC50) (converted). In a few lines: as §1
For data set [10], the target named is PDE1B1 (Homo sapiens, UniProt Q01064). Briefly: In vitro PDE selectivity assay (SPA), PDE1B1. Type of data set: biochemical. Conditions: hPDE1B1; read-out: PDE 1B1 (expressed as pIC50) (converted).
Data set [11] has as its target other members of the PDE family (Homo sapiens, UniProt O60658). Briefly: In vitro PDE selectivity assay (SPA), other members of the PDE family (protocols in Table A). The class given is biochemical. Conditions: hPDE8A1; read-out: PDE 8A1 (expressed as pIC50) (converted). In a few lines: as §1
The target in data set [12] is other members of the PDE family (Homo sapiens, UniProt P16499+P35913). The description is as above. The class given is biochemical. Conditions: hPDE6AB; read-out: PDE 6AB (expressed as pIC50) (converted). In a few lines:
as §1

Where [13] appears, read: pIC50 corresponds to the −log IC50 expressed in mol/L, read-out: PDE10A2 pIC50 (converted).
Setting [14] is: Table 4 in vitro selectivity, read-out: PDE 10A2 (expressed as pIC50) (converted).
Where [15] appears, read: dose at which 50% of the tested animals show the effect, ≧: active in 30% of the animals at the indicated dose, ≦: active in 60%.

other members of the PDE family (Homo sapiens, UniProt O76083), sequence (O76083 whole entry): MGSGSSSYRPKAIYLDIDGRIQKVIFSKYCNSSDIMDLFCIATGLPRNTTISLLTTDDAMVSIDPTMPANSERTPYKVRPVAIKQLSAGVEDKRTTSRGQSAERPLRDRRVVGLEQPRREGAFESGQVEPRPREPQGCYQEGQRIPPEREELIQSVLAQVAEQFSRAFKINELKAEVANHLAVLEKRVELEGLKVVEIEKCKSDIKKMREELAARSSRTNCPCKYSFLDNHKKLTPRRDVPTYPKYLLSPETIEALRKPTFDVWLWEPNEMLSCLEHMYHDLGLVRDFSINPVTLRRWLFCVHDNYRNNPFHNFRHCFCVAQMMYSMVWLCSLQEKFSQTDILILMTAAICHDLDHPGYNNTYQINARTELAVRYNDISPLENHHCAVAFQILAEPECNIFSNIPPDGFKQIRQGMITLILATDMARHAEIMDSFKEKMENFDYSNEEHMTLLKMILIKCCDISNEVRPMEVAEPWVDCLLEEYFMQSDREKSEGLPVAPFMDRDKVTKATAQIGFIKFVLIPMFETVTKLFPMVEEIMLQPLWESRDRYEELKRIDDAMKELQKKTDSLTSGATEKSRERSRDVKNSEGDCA
other members of the PDE family (Homo sapiens, UniProt O00408), sequence (O00408 whole entry): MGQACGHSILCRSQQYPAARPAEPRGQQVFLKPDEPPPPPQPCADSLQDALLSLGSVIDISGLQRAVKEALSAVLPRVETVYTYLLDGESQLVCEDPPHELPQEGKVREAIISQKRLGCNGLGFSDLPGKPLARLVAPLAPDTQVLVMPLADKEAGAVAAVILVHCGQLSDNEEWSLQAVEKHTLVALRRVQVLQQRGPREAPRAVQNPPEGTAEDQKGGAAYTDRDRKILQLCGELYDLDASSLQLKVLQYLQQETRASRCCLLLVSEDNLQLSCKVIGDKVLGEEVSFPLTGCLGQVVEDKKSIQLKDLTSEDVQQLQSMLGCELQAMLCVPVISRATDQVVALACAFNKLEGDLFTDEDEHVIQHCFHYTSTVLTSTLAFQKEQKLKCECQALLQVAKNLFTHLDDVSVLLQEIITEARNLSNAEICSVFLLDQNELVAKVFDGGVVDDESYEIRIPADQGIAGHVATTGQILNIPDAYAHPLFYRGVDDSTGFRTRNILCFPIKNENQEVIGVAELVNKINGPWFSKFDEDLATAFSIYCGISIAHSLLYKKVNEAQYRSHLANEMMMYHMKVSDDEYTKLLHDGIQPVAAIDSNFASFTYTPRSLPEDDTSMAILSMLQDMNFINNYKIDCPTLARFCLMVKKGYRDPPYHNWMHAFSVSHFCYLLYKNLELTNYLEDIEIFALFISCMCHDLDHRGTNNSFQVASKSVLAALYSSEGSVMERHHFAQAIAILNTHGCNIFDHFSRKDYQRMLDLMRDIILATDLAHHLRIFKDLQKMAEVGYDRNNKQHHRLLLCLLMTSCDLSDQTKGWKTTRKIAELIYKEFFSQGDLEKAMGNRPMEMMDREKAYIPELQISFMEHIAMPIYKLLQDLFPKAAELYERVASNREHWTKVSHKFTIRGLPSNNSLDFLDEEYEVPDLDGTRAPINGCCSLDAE
other members of the PDE family (Homo sapiens, UniProt Q9HCR9), sequence (Q9HCR9 whole entry): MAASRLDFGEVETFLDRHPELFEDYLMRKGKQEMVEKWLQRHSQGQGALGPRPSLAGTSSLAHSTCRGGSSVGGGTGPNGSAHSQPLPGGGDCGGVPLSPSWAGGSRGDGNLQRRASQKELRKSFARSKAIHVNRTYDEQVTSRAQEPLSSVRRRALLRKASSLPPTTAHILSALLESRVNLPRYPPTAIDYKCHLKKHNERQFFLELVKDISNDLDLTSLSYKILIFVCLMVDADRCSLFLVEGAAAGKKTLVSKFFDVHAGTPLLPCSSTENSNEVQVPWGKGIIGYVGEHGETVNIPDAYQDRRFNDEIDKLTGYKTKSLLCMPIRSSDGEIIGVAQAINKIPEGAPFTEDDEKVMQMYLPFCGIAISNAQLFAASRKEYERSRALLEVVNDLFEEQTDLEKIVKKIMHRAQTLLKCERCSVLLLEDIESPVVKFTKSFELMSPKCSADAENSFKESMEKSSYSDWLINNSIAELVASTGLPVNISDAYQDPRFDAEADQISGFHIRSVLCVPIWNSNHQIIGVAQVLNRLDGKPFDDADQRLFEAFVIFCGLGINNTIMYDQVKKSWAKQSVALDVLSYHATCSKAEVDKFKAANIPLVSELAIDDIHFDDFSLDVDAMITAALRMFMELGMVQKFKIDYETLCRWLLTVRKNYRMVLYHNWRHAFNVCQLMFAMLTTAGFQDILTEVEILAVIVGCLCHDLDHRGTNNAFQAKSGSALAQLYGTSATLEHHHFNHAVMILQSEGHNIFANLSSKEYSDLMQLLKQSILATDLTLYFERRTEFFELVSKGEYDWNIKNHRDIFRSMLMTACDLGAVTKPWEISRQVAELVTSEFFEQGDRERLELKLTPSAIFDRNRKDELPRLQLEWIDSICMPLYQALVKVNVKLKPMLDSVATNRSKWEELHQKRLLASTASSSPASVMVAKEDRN
other members of the PDE family (Homo sapiens, UniProt Q13946), sequence (Q13946 whole entry): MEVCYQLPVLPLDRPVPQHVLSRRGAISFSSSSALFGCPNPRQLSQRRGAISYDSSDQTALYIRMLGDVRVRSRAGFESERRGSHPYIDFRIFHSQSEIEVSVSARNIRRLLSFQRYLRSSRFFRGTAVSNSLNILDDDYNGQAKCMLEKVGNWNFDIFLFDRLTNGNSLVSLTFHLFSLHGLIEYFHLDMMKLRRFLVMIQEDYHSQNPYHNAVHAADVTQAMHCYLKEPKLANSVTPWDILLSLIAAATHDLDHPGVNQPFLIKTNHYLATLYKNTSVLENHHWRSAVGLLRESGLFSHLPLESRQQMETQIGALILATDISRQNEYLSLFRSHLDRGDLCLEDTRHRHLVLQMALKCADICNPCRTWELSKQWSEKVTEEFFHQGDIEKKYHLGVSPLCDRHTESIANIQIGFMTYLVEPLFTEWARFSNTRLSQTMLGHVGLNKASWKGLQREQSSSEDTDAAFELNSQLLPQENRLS
PDE4D3, sequence (Q08499 1-673 isoform Q08499-2): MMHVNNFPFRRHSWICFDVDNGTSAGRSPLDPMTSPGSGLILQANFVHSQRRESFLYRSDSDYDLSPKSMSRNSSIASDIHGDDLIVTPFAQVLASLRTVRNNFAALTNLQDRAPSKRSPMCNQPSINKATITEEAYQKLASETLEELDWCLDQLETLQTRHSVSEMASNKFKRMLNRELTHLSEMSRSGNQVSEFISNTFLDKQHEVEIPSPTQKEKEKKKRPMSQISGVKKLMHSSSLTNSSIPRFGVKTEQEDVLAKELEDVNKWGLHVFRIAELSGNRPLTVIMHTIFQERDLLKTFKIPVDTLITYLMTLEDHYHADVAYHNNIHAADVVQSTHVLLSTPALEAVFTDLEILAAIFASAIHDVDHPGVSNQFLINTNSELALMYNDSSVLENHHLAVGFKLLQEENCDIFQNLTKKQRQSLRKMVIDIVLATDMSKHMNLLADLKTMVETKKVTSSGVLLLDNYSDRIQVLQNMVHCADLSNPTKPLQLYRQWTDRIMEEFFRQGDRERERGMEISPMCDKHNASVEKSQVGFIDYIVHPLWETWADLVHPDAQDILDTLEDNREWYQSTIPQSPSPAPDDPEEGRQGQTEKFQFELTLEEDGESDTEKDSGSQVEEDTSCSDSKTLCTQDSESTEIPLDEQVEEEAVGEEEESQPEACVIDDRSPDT
other members of the PDE family (Homo sapiens, UniProt Q14432), sequence (Q14432 whole entry): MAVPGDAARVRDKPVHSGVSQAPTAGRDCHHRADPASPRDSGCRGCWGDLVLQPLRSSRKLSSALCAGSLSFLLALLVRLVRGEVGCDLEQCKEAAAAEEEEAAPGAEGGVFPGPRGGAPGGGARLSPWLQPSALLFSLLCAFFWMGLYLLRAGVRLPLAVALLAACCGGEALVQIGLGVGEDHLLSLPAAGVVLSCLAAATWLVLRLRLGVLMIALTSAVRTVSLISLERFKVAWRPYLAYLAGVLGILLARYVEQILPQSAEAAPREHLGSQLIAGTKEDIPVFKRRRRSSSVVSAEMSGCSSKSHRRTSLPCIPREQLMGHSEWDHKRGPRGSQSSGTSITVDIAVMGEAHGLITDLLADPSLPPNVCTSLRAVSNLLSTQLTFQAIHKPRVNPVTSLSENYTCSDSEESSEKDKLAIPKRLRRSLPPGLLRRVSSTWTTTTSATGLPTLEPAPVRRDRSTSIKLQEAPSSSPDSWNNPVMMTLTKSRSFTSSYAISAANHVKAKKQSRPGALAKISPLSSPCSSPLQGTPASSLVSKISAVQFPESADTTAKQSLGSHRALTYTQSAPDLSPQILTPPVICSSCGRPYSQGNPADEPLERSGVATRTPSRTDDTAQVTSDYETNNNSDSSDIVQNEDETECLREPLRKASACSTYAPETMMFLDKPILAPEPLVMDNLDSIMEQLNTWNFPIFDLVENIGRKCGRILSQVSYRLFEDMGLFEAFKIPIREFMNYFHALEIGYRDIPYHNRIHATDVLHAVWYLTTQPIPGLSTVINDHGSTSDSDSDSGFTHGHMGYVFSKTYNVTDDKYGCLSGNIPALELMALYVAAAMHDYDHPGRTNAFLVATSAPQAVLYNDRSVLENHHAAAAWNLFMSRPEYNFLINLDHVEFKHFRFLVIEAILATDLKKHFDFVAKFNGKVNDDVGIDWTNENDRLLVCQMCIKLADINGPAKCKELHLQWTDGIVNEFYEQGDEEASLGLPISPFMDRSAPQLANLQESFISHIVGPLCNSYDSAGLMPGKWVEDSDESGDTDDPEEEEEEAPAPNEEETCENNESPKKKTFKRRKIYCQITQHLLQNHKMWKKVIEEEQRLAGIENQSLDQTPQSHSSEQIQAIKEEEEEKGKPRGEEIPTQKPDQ

Regarding `Cc1nc2c(-c3ccncc3)ccnn2c1-c1ccc(N2CCOCC2)nc1` [compound 31, 2-methyl-3-[6-(4-morpholinyl)-3-pyridinyl]-8-(4-pyridinyl)-imidazo[1,2-b]pyridazine], the melting point (usually the temperature of the solid-liquid transition) is > 300 °C (dec.). In addition, the IC50 in data set [1] (setting [13]) was 60.3 nM. Besides, the ED50 (in general, the midpoint of the dose-response relation) in [2] (n.d.: found not active at threshold dose 2.5 mg/kg or 10 mg/kg (a), not further tested) was more than 2.5 mg/kg.
Regarding `c1cc(-c2ccnn3c(-c4ccc(N5CCOCC5)nc4)cnc23)ccn1` [compound 61, 3-[6-(4-morpholinyl)-3-pyridinyl]-8-(4-pyridinyl)-imidazo[1,2-b]pyridazine], the IC50 in [3] is more than 10 µM; in [1] (setting [14]), 339 nM; in data set [1] (setting [13]), 339 nM; in [4], 2690 nM; in data set [5], more than 10 µM; in data set [6], 7.94 µM. For the same compound, the IC50 in data set [7], in [8], in data set [9] and in [10] was more than 10 µM each time. This compound came in with an ED50 in data set [2] (setting [15]) of 1.2 mg/kg.
As for `COCCn1cc(-c2c(C)nc3c(N4CCOCC4)ccnn23)cn1` [compound 36, 3-[1-(2-methoxyethyl)-1H-pyrazol-4-yl]-2-methyl-8-(4-morpholinyl)-imidazo[1,2-b]pyridazine], the IC50 in data set [3] was more than 10 µM; in data set [1] (setting [14]), 56.2 nM; in [1] (setting [13]), 56.2 nM; in data set [4] it was more than 10000 nM; in data set [5], more than 10 µM; in [11] it was more than 10 µM. For the same compound, the IC50 in data set [6], in [7], in data set [8], in data set [12] and in data set [9] was more than 10 µM in each case. The ED50 in [2] (setting [15]) worked out at 5 mg/kg.
